For data set [1] the following is noted: cited from earlier work.
Data set [2] in a line: Solvent characteristics (hydrophobic / polar / hydrophilic / complex). The format is physicochemical. The text has this: […] conceptual segments were defined for nonelectrolyte molecules: a hydrophobic segment, a polar segment, a hydrophilic segment and a solvation segment. […] Real molecules in turn are used as reference molecules for the conceptual segments and available phase equilibrium data of these reference molecules are used to identify NRTL binary parameters for the conceptual segments. […] The study was focused on the 59 ICH solvents used in pharmaceutical process design.
Hydrocarbon solvents (aliphatic or aromatic), halogenated hydrocarbons, and ethers are mainly hydrophobic. Ketones, esters and amides are both hydrophobic and polar. Alcohols, glycols, and amines may have both substantial hydrophilicity and hydrophobicity. Acids are complex, with hydrophilicity, polarity, and hydrophobicity.

For data set [3] the following is noted: compiled from internet websites and Aspen Properties v2004.1; cited from earlier work.

Take `O=C(CCCN1CCC(O)(c2ccc(Cl)cc2)CC1)c1ccc(F)cc1` [Haloperidol]: the solubility result in data set [1] (in chloroform and DMF, 298.15K) is recorded as “unusually high solubilities”.
Regarding `CC(=O)O` [ACETIC-ACID, Acetic acid], in data set [2], the Solvent characteristics result was “Complex”. In addition, in data set [3], the “dielectric constant at 298.15 K” value is on record as 6.13.
For `O=C([O-])c1ccccc1O.[Na+]` [sodium salicylate], the “solubility (data)” value in data set [1] (in benzene, cyclohexane, and heptane) was “very low but measurable solubility”.
`COC(C)(C)C` [METHYL-TERT-BUTYL-ETHER, Methyl-tert-butyl-ether]: in data set [2], the Solvent characteristics result is “Hydrophobic”. In addition, the “dielectric constant at 298.15 K” value in data set [3] is 2.6.
Regarding `CC(=O)CC(C)C` [METHYL-ISOBUTYL-KETONE, Methyl-isobutyl-ketone], the Solvent characteristics entry in data set [2] is “Hydrophobic/Polar”. For the same compound, in data set [3], the “dielectric constant at 298.15 K” value is 13.1.
As to `CC(C)CO` [ISOBUTANOL, Isobutanol], in data set [2], the Solvent characteristics result is “Hydrophobic/”. In addition, in data set [3], the “dielectric constant at 298.15 K” value is reported as 17.9.
With `ClC=C(Cl)Cl` [TRICHLOROETHYLENE, Trichloroethylene], the Solvent characteristics result in data set [2] is given as “Hydrophobic”. Moreover, in data set [3], the “dielectric constant at 298.15 K” value is 3.42.
For `ClCCl` [DICHLOROMETHANE, Dichloromethane], the Solvent characteristics result in data set [2] is reported as “Polar”. The “dielectric constant at 298.15 K” value in data set [3] was 8.9.
In the case of `COc1ccccc1` [ANISOLE, Anisole], in data set [2], the Solvent characteristics result is “Hydrophobic”. Also, the “dielectric constant at 298.15 K” value in data set [3] is reported as 4.3.
As for `CCCCC` [N-PENTANE, n-Pentane], in data set [2], the Solvent characteristics entry is “Hydrophobic”. Further, the “dielectric constant at 298.15 K” value in data set [3] was 1.84.
In the case of `C1CCOC1` [TETRAHYDROFURAN, Tetrahydrofuran], the Solvent characteristics entry in data set [2] is listed as “Polar”. The “dielectric constant at 298.15 K” value in data set [3] is on record as 7.52.
In the case of `CCO` [ETHANOL, Ethanol], the Solvent characteristics entry in data set [2] was “Hydrophobic/”. For the same compound, in data set [3], the “dielectric constant at 298.15 K” value is listed as 24.11.
As to `CCC(C)=O` [METHYL-ETHYL-KETONE, Methyl-ethyl-ketone], in data set [2], the Solvent characteristics entry is “Hydrophobic/Polar”. Further, in data set [3], the “dielectric constant at 298.15 K” value is on record as 18.5.
For `CCCOC(C)=O` [N-PROPYL-ACETATE, n-propyl-acetate], the Solvent characteristics result in data set [2] is on record as “Hydrophobic/Polar”. Also, the “dielectric constant at 298.15 K” value in data set [3] is listed as 6.
Consider `Cc1ccccc1` [TOLUENE, Toluene], for which, in data set [2], the Solvent characteristics entry is listed as “Hydrophobic”. Also, the “dielectric constant at 298.15 K” value in data set [3] is 2.36.

The values are drawn from US8666675B2, “Computer method and system for predicting physical properties using a conceptual segment model” (Aspen Technology, Inc., priority 2004, dated 2014).
